Experimental data: publication PMC6640931 (ACS Omega, 2017)
Where “and” joins values, the source holds several entries; their conditions need not be identical. Equal values may be shown once.

Tests used:
[1] = Thermogravimetric analysis; assay type: physicochemical; details: under nitrogen, 5 °C/min
[2] = Solubility in simulated body fluids; assay type: physicochemical
[3] = cited from earlier work
[4] = Equilibrium solubility in deionized water; details: for solubility, acyclovir active: DI water (pH 6.92), room temperature; for solubility: DI water (pH = 6.92)
[5] = cited from earlier work; remark: listed apart in the source

| T5% (decomposition of 5% of the sample), TGA [1] | solubility, acyclovir active [4] | solubility [4] | Compound | other results |
| --- | --- | --- | --- | --- |
| 131 °C | – | – | C[N+](C)(C)CCO.Nc1nc2c(ncn2COCCO)c(=O)[nH]1 [[Cho][Acy] (1), Choline Acyclovir] | – |
| 240.1 °C | – | – | Nc1nc2c(ncn2COCCO)c(=O)[nH]1 [acyclovir (3Acy·2H2O), 9-[(2-hydroxyethoxy)methyl]guanine, reference compound] | solubility ([2]; simulated intestinal fluid (SIF), pH 6.8, thermodynamic from solid): 4440 µM and 1000 µg/mL; solubility in water ([3]; at 22–25 °C): 1200 to 1600 µg/mL |
| – | 101.3(5) mg active/mL | 101.3 mg acyclovir active/mL | CCCCCCCCCCCCCCCC[N+](C)(C)C.Nc1nc2c(ncn2COCCO)c(=O)[n-]1 [[N1,1,1,16][Acy] (4), Hexadecyltrimethylammonium Acyclovir] | – |
| – | – | – | CC(C)[C@H](N)C(=O)OCCOCn1cnc2c(=O)[nH]c(N)nc21 [valacyclovir] | oral bioavailability [5]: ca. 55%; oral bioavailability relative to acyclovir [5]: 3 times |
| 122.1 °C | 2.948(4) mg active/mL | 2.9 mg acyclovir active/mL | CCCCC(CC)COC(=O)CC(C(=O)OCC(CC)CCCC)S(=O)(=O)O.Nc1nc2c(ncn2COCCO)c(=O)[nH]1 (stereo not drawn) [[H2Acy][Doc] (6), Acyclovir Docusate] | – |
| – | – | – | C[N+](C)(C)CCO.Cc1ccc(C(=O)c2ccc(CC(=O)[O-])n2C)cc1 [choline tolmetin] | water solubility of choline salt relative to neutral form [3]: 8000 times |
| – | 213.7 mg active/mL | 213.7 mg acyclovir active/mL | CCCC[N+](CCCC)(CCCC)CCCC.Nc1nc2c(ncn2COCCO)c(=O)[n-]1 [[N4,4,4,4][Acy] (3), Tetrabutylammonium Acyclovir] | solubility, acyclovir active ([2]; PBS, pH 7.4): 220(20) mg active/mL; solubility, acyclovir active ([2]; SGF, pH 1.2): 170(20) mg active/mL; solubility, acyclovir active ([2]; SIF, pH 6.8): 140(10) mg active/mL; acyclovir active delivered relative to acyclovir itself ([2]; across the three media (PBS, SIF, SGF), depending on the medium): ca. 150 times |
